Experimental data published in PubChem BioAssay AID2060889 (Molecular Pharmacology Branch, DTP, NCI, 2025).
pIC50: −log10 of the molar value.

Test system: LG0567-F671-PDC complex spheroids viability
Experiment: Anticancer human tumor LG0567-F671-PDC patient-derived lung adenocarcinoma cell line growth inhibition [RAS]
Settings: for pIC50: curve of first compound; for viability, T/C: stronger effect = lower value
In short: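 Multi-cell-type spheroids: tumor cells plus HUVEC endothelial cells and mesenchymal stem cells. RAS-pathway inhibitors were combined with targeted agents, each dosed in half-log steps down from clinical Cmax, or from 10 microM when Cmax was unknown.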
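Also: spheroids exposed to compound for seven days before readout.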
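For pIC50 in this document: luminescence signal used as a proxy for viable cells.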

Structure (SMILES): CC1(O)CCCC1n1c(=O)c(C(F)F)cc2cnc(NC3CCN(S(C)(=O)=O)CC3)nc21 (configuration not stated) + CCn1c(-c2cccnc2C(C)OC)c2c3cc(ccc31)N1CCOC(CC(NC(=O)C(C(C)C)N(C)C(=O)C3(F)CCN(C(=O)C#CC(C)(C)N(C)C)CC3)C(=O)N3CCCC(N3)C(=O)OCC(C)(C)C2)C1
- pIC50 (second compound 0.000949 µM): > 7.50
- pIC50 (second compound 0.003 µM): > 7.50
- pIC50 (second compound 0.00949 µM): > 7.50
- pIC50 (second compound 0.03 µM): > 7.50
- pIC50 (second compound 0.0949 µM): > 7.50
- pIC50 (second compound 0.3 µM): > 7.50
- viability, T/C (second compound 0.000949 µM, first compound 0.0316 µM): 17.6%
- viability, T/C (second compound 0.000949 µM, first compound 0.1 µM): 18.2%
- viability, T/C (second compound 0.000949 µM, first compound 0.316 µM): 18.2%
- viability, T/C (second compound 0.000949 µM, first compound 1 µM): 21.6%
- viability, T/C (second compound 0.000949 µM, first compound 3.16 µM): 22.6%
- viability, T/C (second compound 0.000949 µM, first compound 10 µM): 18%
- viability, T/C (second compound 0.003 µM, first compound 0.0316 µM): 17.6%
- viability, T/C (second compound 0.003 µM, first compound 0.1 µM): 16.9%
- viability, T/C (second compound 0.003 µM, first compound 0.316 µM): 18.5%
- viability, T/C (second compound 0.003 µM, first compound 1 µM): 21.3%
- viability, T/C (second compound 0.003 µM, first compound 3.16 µM): 24.5%
- viability, T/C (second compound 0.003 µM, first compound 10 µM): 16.8%
- viability, T/C (second compound 0.00949 µM, first compound 0.0316 µM): 15.8%
- viability, T/C (second compound 0.00949 µM, first compound 0.1 µM): 16.7%
- viability, T/C (second compound 0.00949 µM, first compound 0.316 µM): 20.2%
- viability, T/C (second compound 0.00949 µM, first compound 1 µM): 20.4%
- viability, T/C (second compound 0.00949 µM, first compound 3.16 µM): 20.7%
- viability, T/C (second compound 0.00949 µM, first compound 10 µM): 16.2%
- viability, T/C (second compound 0.03 µM, first compound 0.0316 µM): 14.5%
- viability, T/C (second compound 0.03 µM, first compound 0.1 µM): 15.2%
- viability, T/C (second compound 0.03 µM, first compound 0.316 µM): 19.5%
- viability, T/C (second compound 0.03 µM, first compound 1 µM): 19.1%
- viability, T/C (second compound 0.03 µM, first compound 3.16 µM): 20.2%
- viability, T/C (second compound 0.03 µM, first compound 10 µM): 16.3%
- viability, T/C (second compound 0.0949 µM, first compound 0.0316 µM): 13.5%
- viability, T/C (second compound 0.0949 µM, first compound 0.1 µM): 15.5%
- viability, T/C (second compound 0.0949 µM, first compound 0.316 µM): 16.1%
- viability, T/C (second compound 0.0949 µM, first compound 1 µM): 17.1%
- viability, T/C (second compound 0.0949 µM, first compound 3.16 µM): 18.6%
- viability, T/C (second compound 0.0949 µM, first compound 10 µM): 15.6%
- viability, T/C (second compound 0.3 µM, first compound 0.0316 µM): 11.8%
- viability, T/C (second compound 0.3 µM, first compound 0.1 µM): 12.4%
- viability, T/C (second compound 0.3 µM, first compound 0.316 µM): 14.1%
- viability, T/C (second compound 0.3 µM, first compound 1 µM): 16.2%
- viability, T/C (second compound 0.3 µM, first compound 3.16 µM): 17.4%
- viability, T/C (second compound 0.3 µM, first compound 10 µM): 11.8%
